Source: US20240043470A1, “MACROCYCLIC COMPOUNDS AS PROTEASOME INHIBITORS” (CORNELL UNIVERSITY, priority 2017, published 2024)

Each molecule was assayed against β5c of hu c-20S (Homo sapiens (Human), UniProt P20618+P28074) (assay: IC50 determination against β5c of human constitutive proteasome (suc-LLVY-AMC hydrolysis)). Settings: 0.2 nM c-20S, 25 μM suc-LLVY-AMC.
Assay type: biochemical
`O=C1CCc2cccc(c2)Oc2ccc(cc2)C[C@@H](C(=O)NCc2cccc3ccccc23)NC(=O)[C@H](CC(=O)N2CCCC2)N1` (single isomer, unassigned) [Compound 2-03-A, N-(Naphthalen-1-ylmethyl)-7,10-dioxo-8-(2-oxo-2-(pyrrolidin-1-yl)ethyl)-2-oxa-6,9-diaza-1(1,3),3(1,4)-dibenzenacyclododecaphane-5-carboxamide] gave an IC50 of 18.5 µM.
With `C[C@H]1Cc2cccc(c2)OCCCC[C@@H](C(=O)NC2CCCC2)NC(=O)[C@H](CCN2CCOCC2)NC1=O` (single isomer, unassigned) [Compound 3-37] the IC50 was 56.7 µM.
`C[C@@H]1Cc2cccc(c2)OCCCC[C@@H](C(=O)NC2CCCC2)NC(=O)[C@H](CCN2CCOCC2)NC1=O` (single isomer, unassigned) [Compound 3-38] gave an IC50 of 21.5 µM.
`O=C1CCc2cccc(c2)OCCCC[C@@H](C(=O)NC2CCCC2)NC(=O)[C@H](CC(=O)N2CCCC2C2CC2)N1` (single isomer, unassigned) [Compound 3-45-A] gave an IC50 of 12.3 µM.
`O=C1CCc2cccc(c2)OCCCC[C@@H](C(=O)NC2CCCC2)NC(=O)[C@H](CC(=O)N2CCCC2C2CC2)N1` (single isomer, unassigned) [Compound 3-45-B] was tested, and the IC50 was 3.6 µM.
Molecule `O=C1CCc2cccc(c2)OCCCC[C@@H](C(=O)NCc2ccccc2F)NC(=O)[C@H](CC(=O)N2CCCC2C2CC2)N1` (single isomer, unassigned) [Compound 3-46-A] has an IC50 of 0.0723 µM.
With `O=C1CCc2cccc(c2)OCCCC[C@@H](C(=O)NCc2ccccc2F)NC(=O)[C@H](CC(=O)N2CCCC2C2CC2)N1` (single isomer, unassigned) [Compound 3-46-B] the IC50 was 1.35 µM.
Work on `CCN[C@H]1Cc2cccc(c2)Oc2cccc(c2)C[C@@H](C(=O)NC2CCCC2)NC(=O)[C@H](CCc2ccccc2)NC1=O` [Compound 1-24, (5S,8S,11S)—N-Cyclopentyl-11-(methylamino)-7,10-dioxo-8-phenethyl-2-oxa-6,9-diaza-1,3(1,3)-dibenzenacyclododecaphane-5-carboxamide] yielded an IC50 of 100 µM.
`CCN(CC)[C@H]1Cc2cccc(c2)Oc2cccc(c2)C[C@@H](C(=O)NC(C)C)NC(=O)[C@H](CCc2ccccc2)NC1=O` [Compound 1-25] gave an IC50 of 1.63 µM.
In the case of `CC(C)NC(=O)[C@@H]1Cc2cccc(c2)Oc2cccc(c2)C[C@H](NC(=O)c2ccccc2)C(=O)N[C@@H](CCc2ccccc2)C(=O)N1` [Compound 1-26], the IC50 is reported as 6.93 µM.
Work on `CCNC(=O)[C@@H]1Cc2cccc(c2)Oc2cccc(c2)C[C@H](N(CC)CC)C(=O)N[C@@H](CCc2ccccc2)C(=O)N1` [Compound 1-27] yielded an IC50 of 1.14 µM.
Work on `CCNC(=O)[C@@H]1Cc2cccc(c2)Oc2cccc(c2)C[C@H](N2CCCCC2)C(=O)N[C@@H](CCc2ccccc2)C(=O)N1` [Compound 1-28] yielded an IC50 of 2.47 µM.
Molecule `CCN(CC)[C@H]1Cc2cccc(c2)Oc2cccc(c2)C[C@@H](C(=O)NCC(C)C)NC(=O)[C@H](CCc2ccccc2)NC1=O` [Compound 1-29] has an IC50 of 2.2 µM.
`CCC(=O)N[C@H]1Cc2cccc(c2)Oc2cccc(c2)C[C@@H](C(=O)NCC(C)C)NC(=O)[C@H](CCc2ccccc2)NC1=O` [Compound 1-30] gave an IC50 of 4.21 µM.
Molecule `CC(C)CNC(=O)[C@@H]1Cc2cccc(c2)Oc2cccc(c2)C[C@H](NC(=O)c2ccccc2)C(=O)N[C@@H](CCc2ccccc2)C(=O)N1` [Compound 1-31] has an IC50 of 5 µM.
`CC(C)CNC(=O)[C@@H]1Cc2cccc(c2)Oc2cccc(c2)C[C@H](NC(=O)c2cn(C)cn2)C(=O)N[C@@H](CCc2ccccc2)C(=O)N1` [Compound 1-32] gave an IC50 of 8.86 µM.
Molecule `COCCC(=O)N[C@H]1Cc2cccc(c2)Oc2cccc(c2)C[C@@H](C(=O)NCc2cccnc2)NC(=O)[C@H](CCc2ccccc2)NC1=O` [Compound 1-33] has an IC50 of 2.25 µM.
Work on `COCCNC(=O)[C@@H]1Cc2cccc(c2)Oc2cccc(c2)C[C@H](NC(=O)c2cccnc2)C(=O)N[C@@H](CCc2ccccc2)C(=O)N1` [Compound 1-34] yielded an IC50 of 2.85 µM.
Work on `CS(=O)(=O)N[C@H]1Cc2cccc(c2)Oc2cccc(c2)C[C@@H](C(N)=O)NC(=O)[C@H](CCc2ccccc2)NC1=O` [Compound 1-35] yielded an IC50 of 3 µM.
`CCN(CC)C(=O)[C@@H]1Cc2cccc(c2)Oc2cccc(c2)C[C@H](NC(=O)c2ccncc2)C(=O)N[C@@H](CCc2ccccc2)C(=O)N1` [Compound 1-36] was tested, and the IC50 was 3.04 µM.
Molecule `Cc1nn(C)cc1CNC(=O)[C@@H]1Cc2cccc(c2)Oc2cccc(c2)C[C@H](NS(C)(=O)=O)C(=O)N[C@@H](CCc2ccccc2)C(=O)N1` [Compound 1-38] has an IC50 of 4.29 µM.
Molecule `CN(C)CCC(=O)N[C@H]1Cc2cccc(c2)Oc2cccc(c2)C[C@@H](C(=O)NCC2CCCCN2C)NC(=O)[C@H](CCc2ccccc2)NC1=O` (stereo partly shown) [Compound 1-39] has an IC50 of 4.57 µM.
Molecule `O=C(N[C@H]1Cc2cccc(c2)Oc2cccc(c2)C[C@@H](C(=O)NCCC(F)(F)F)NC(=O)[C@H](CCc2ccccc2)NC1=O)c1ccccc1` [Compound 1-41] has an IC50 of 5.7 µM.
In the case of `CCC(=O)N[C@H]1Cc2cccc(c2)Oc2cccc(c2)C[C@@H](c2nc3ccccc3o2)NC(=O)[C@H](CCc2ccccc2)NC1=O` [Compound 1-42], the IC50 is reported as 5.93 µM.
In the case of `O=C(N[C@H]1Cc2cccc(c2)Oc2cccc(c2)C[C@@H](C(=O)N2CCCC2)NC(=O)[C@H](CCc2ccccc2)NC1=O)C1COC1` [Compound 1-44], the IC50 is reported as 7.52 µM.
`COCCC(=O)N[C@H]1Cc2cccc(c2)Oc2cccc(c2)C[C@@H](C(=O)NCCC(F)(F)F)NC(=O)[C@H](CCc2ccccc2)NC1=O` [Compound 1-45] gave an IC50 of 7.7 µM.
`CS(=O)(=O)CCNC(=O)[C@@H]1Cc2cccc(c2)Oc2cccc(c2)C[C@H](NC(=O)CO)C(=O)N[C@@H](CCc2ccccc2)C(=O)N1` [Compound 1-46] showed an IC50 of 9.5 µM.
`COCC(=O)N[C@H]1Cc2cccc(c2)Oc2cccc(c2)C[C@@H](C(=O)NCC2CCCO2)NC(=O)[C@H](CCc2ccccc2)NC1=O` (stereo partly shown) [Compound 1-47] showed an IC50 of 9.7 µM.
In the case of `CCC(=O)N[C@H]1Cc2cccc(c2)Oc2cccc(c2)C[C@@H](C(=O)NCc2ccccn2)NC(=O)[C@H](CCc2ccccc2)NC1=O` [Compound 1-48], the IC50 is reported as 10.2 µM.
`O=C(N[C@H]1Cc2cccc(c2)Oc2cccc(c2)C[C@@H](C(=O)NCC2CCOCC2)NC(=O)[C@H](CCc2ccccc2)NC1=O)c1cccnn1` [Compound 1-49] was tested, and the IC50 was 11.9 µM.
`O=C1CCc2cccc(c2)Oc2cccc(c2)C[C@@H](C(=O)NCc2ccccc2F)NC(=O)[C@H](CCN2CCOCC2)N1` [Compound 1-91] was tested, and the IC50 was 0.47 µM.
`O=C(NCC1CC1)[C@@H]1CCCCOc2cccc(c2)C[C@H](N2CCCC2=O)C(=O)N[C@@H](CCN2CCOCC2)C(=O)N1` [Compound 3-17, (7S,10S,13S)—N-(Cyclopropylmethyl)-10-(2-morpholinoethyl)-9,12-dioxo-13-(2-oxopyrrolidin-1-yl)-2-oxa-8,11-diaza-1(1,3)-benzenacyclotetradecaphane-7-carboxamide] gave an IC50 of 17.9 µM.
With `O=C(NCC(F)(F)F)[C@@H]1CCCCOc2cccc(c2)C[C@H](N2CCCS2(=O)=O)C(=O)N[C@@H](CCN2CCOCC2)C(=O)N1` [Compound 3-19] the IC50 was 45 µM.
With `O=C1CCc2cccc(c2)OCCCC[C@@H](C(=O)NC2CCCC2)NC(=O)[C@H](CCN2CCOCC2)N1` [Compound 3-25, (6S,9S)—N-Cyclopentyl-9-(2-morpholinoethyl)-8,11-dioxo-2-oxa-7,10-diaza-1(1,3)-benzenacyclotridecaphane-6-carboxamide] the IC50 was 24.1 µM.
In the case of `CC1(CNC(=O)[C@@H]2CCCCOc3cccc(c3)CCC(=O)N[C@@H](CCN3CCOCC3)C(=O)N2)CC1` [Compound 3-27], the IC50 is reported as 34.6 µM.
`O=C(NC[C@H]1CCCO1)[C@@H]1CCCCOc2cccc(c2)C[C@H](N2CCCC2=O)C(=O)N[C@@H](CCc2ccc(F)cc2)C(=O)N1` [Compound 3-30] was tested, and the IC50 was 85.3 µM.
Work on `CN1C(=O)[C@H](CCc2ccccc2)NC(=O)[C@@H](N2CCCC2=O)Cc2cccc(c2)OCCCC[C@H]1C(=O)NCC(F)(F)F` [Compound 3-33] yielded an IC50 of 25.8 µM.

Each molecule was assayed against β5i of hu i-20S (Homo sapiens (Human), UniProt P20618+P28062) (assay: IC50 determination against β5i of human immunoproteasome (Ac-ANW-AMC hydrolysis)). Settings: compound at […].
Assay type: biochemical
In the case of `O=C(NC1CCCC1)[C@@H]1Cc2cccc(c2)Oc2cccc(c2)C[C@H](N2CCCS2(=O)=O)C(=O)N[C@@H](CCN2CCOCC2)C(=O)N1` [Compound 1-88, (5S,8S,11S)—N-Cyclopentyl-11-(1,1-dioxidoisothiazolidin-2-yl)-8-(2-morpholinoethyl)-7,10-dioxo-2-oxa-6,9-diaza-1,3(1,3)-dibenzenacyclododecaphane-5-carboxamide], the “% @ […], hu i-20S” value is reported as 15% @ 33.3 μM.

Same assay, conditions: β5i, 0.4 nM i-20S, 15 μM Ac-ANW-AMC
With `O=C1CCc2cccc(c2)Oc2ccc(cc2)C[C@@H](C(=O)NCc2cccc3ccccc23)NC(=O)[C@H](CC(=O)N2CCCC2)N1` (single isomer, unassigned) [Compound 2-03-A, N-(Naphthalen-1-ylmethyl)-7,10-dioxo-8-(2-oxo-2-(pyrrolidin-1-yl)ethyl)-2-oxa-6,9-diaza-1(1,3),3(1,4)-dibenzenacyclododecaphane-5-carboxamide] the IC50 was 10.1 µM.
In the case of `C[C@H]1Cc2cccc(c2)OCCCC[C@@H](C(=O)NC2CCCC2)NC(=O)[C@H](CCN2CCOCC2)NC1=O` (single isomer, unassigned) [Compound 3-37], the IC50 is reported as greater than 100 µM.
`C[C@@H]1Cc2cccc(c2)OCCCC[C@@H](C(=O)NC2CCCC2)NC(=O)[C@H](CCN2CCOCC2)NC1=O` (single isomer, unassigned) [Compound 3-38] gave an IC50 greater than 100 µM.
In the case of `O=C1CCc2cccc(c2)OCCCC[C@@H](C(=O)NC2CCCC2)NC(=O)[C@H](CC(=O)N2CCCC2C2CC2)N1` (single isomer, unassigned) [Compound 3-45-A], the IC50 is reported as greater than 100 µM.
With `O=C1CCc2cccc(c2)OCCCC[C@@H](C(=O)NC2CCCC2)NC(=O)[C@H](CC(=O)N2CCCC2C2CC2)N1` (single isomer, unassigned) [Compound 3-45-B] the IC50 was greater than 100 µM.
For `O=C1CCc2cccc(c2)OCCCC[C@@H](C(=O)NCc2ccccc2F)NC(=O)[C@H](CC(=O)N2CCCC2C2CC2)N1` (single isomer, unassigned) [Compound 3-46-A], the IC50 was 0.068 µM.
With `O=C1CCc2cccc(c2)OCCCC[C@@H](C(=O)NCc2ccccc2F)NC(=O)[C@H](CC(=O)N2CCCC2C2CC2)N1` (single isomer, unassigned) [Compound 3-46-B] the IC50 was 0.312 µM.
`O=C1N[C@@H](CC(=O)N2CCCC2)C(=O)N[C@H](C(=O)NCc2cccc3ccccc23)CCCCCCCCCC1Cc1ccccc1` (stereo in doubt) [Compound 4-04, (2S,5S,15S)-15-Benzyl-N-(naphthalen-1-ylmethyl)-3,16-dioxo-2-(2-oxo-2-(pyrrolidin-1-yl)ethyl)-1,4-diazacyclohexadecane-5-carboxamide] was tested, and the IC50 was 61.3 µM.
`CN1C(=O)[C@H](CCN2CCOCC2)NC(=O)[C@@H](N2CCCC2=O)Cc2cccc(c2)Oc2cccc(c2)C[C@H]1C(=O)NCC(F)(F)F` [Compound 1-86, (5S,8S,11S)-6-Methyl-8-(2-morpholinoethyl)-7,10-dioxo-11-(2-oxopyrrolidin-1-yl)-N-(2,2,2-trifluoroethyl)-2-oxa-6,9-diaza-1,3(1,3)-dibenzenacyclododecaphane-5-carboxamide] gave an IC50 of 61 µM.
`O=C1CCc2cccc(c2)Oc2cccc(c2)C[C@@H](C(=O)NC2CCCC2)NC(=O)[C@H](CCN2CCOCC2)N1` [Compound 1-89, (5S,8S)—N-Cyclopentyl-8-(2-morpholinoethyl)-7,10-dioxo-2-oxa-6,9-diaza-1,3(1,3)-dibenzenacyclododecaphane-5-carboxamide] was tested, and the IC50 was greater than 100 µM.
Molecule `O=C1N[C@H](CO)CCCCOc2cccc(c2)C[C@H](N2CCCC2=O)C(=O)N[C@H]1CCc1ccccc1` [Compound 3-06, (7S,10S,13S)-7-(Hydroxymethyl)-13-(2-oxopyrrolidin-1-yl)-10-phenethyl-2-oxa-8,11-diaza-1(1,3)-benzenacyclotetradecaphane-9,12-dione] has an IC50 of 68 µM.
